# In ChEMBL document CHEMBL5728837, “Non-fused tricyclic compounds” (2021):
# Test: YAP Reporter Assay: HEK293T cells stably transfected with 8XTBD luciferase reporter and pRLTK in 384-well plates were treated with the test compounds, starting from 3 μM (final concentration in assay plate), 1:3 dilution, and 10 points in quadruplicates. Post 24-hr incubation with compounds at 37° C. and 5% CO2, cells were lysed and 8XTBD-driven firefly luciferase and control TK-driven renilla luciferase activities were measured using Promega Dual-Luciferase Reporter Assay System.Reagents: The reagents used for this study are: DMEM: Invitrogen #11960077, Dual-Glo Luciferase Assay System: Promega-E2980, Puromycin Dihydrochloride: Invitrogen-A1113803, 384-well plate: PerkinElmer-6007480, L-GLUTAMINE: Invitrogen-25030164, Hygromycin B: Invitrogen-10687010, and Penicillin-Streptomycin: Merk-TMS-AB2-CMedia: The media used for this assay were: Culture Medium: DMEM+1 ug/mL puromycin+200 ug/mL hygromycin (with 10% FBS+1 mM L-glutamine); and Assay Medium: DMEM (with 10% FBS+1 mM L-glutamine+1× P/S).Cell Plating: The appropriate media was warmed at 37° C. by water bath: Culture Medium, Assay Medium, 1*D-PBS, 0.05% trypsin-EDTA. The cells were trypsinized after removing all media, then washed with 1*sterile D-PBS and then with 2 ml 0.05% trypsin-EDTA. The cells were then incubated at RT for one minute. Then 10 ml/75 cm2 flask Assay Medium was added to each flask. Using a 10 ml pipette, the cells were then gently resuspended in the media, until the clumps completely disappeared. The cells were then transferred into 50 ml centrifuge tubes and were centrifuged at 800 rpm for 5 mins. The medium was removed and the cells were resuspended with Assay Medium. An aliquot of cells was used to count the cell density (cells/nil). The cell suspension was then diluted with Assay Medium to a concentration of 6×10^4 cells/ml. 50 ul cells suspension was then plated to 384-well plate (PerkinElmer-6007480), 3×10^3 cells/well and the cells were incubated in an incubator at 37° C., 5% CO2.Compound Treatment: In the afternoon (incubation of the plate with 3-4 hrs), the test compounds were added by Echo, starting from 3 uM (final concentration in the assay plate), 1:3 dilution, 10 points, quadruplicates. The plate was placed at 37° C., 5% CO2 incubator for 24 hrs.Detection: The Dual-Glo Luciferase Reagent was prepared by transferring the contents of one bottle of Dual-Glo Luciferase Buffer to one bottle of Dual-Glo Luciferase Substrate to create the Dual-Glo Luciferase Reagent. Mixing was performed by inversion until the substrate was thoroughly dissolved. After mixing, the reagent was aliquoted into 15 ml tubes. In the afternoon (24 hrs post compound treatment), the DMEM+ medium in the 384 well plates were aspirated by Microplate Washer.Measuring firefly luciferase activity: 20 ul Dual-Glo Luciferase Reagent was added to the 384-well plates. The plates were protected from light to prevent interference with the assay. The plates were shaken for 1 min followed centrifuging plates at 1000 rpm for 30 seconds. After waiting at least 10 minutes, the firefly luminescence was measured by Envision.Measuring renilla luciferase activity: 20 ul Stop-Glo Reagent was added to the 384-well plates. The plates were shaken for lmin and then centrifuged at 1000 rpm for 30 seconds. After waiting at least 10 minutes, the renilla luminescence was measured by Envision.
SMILES,"IC50 (HEK-293T, 24 h)",IC50
OC1(Cn2nnc(-c3ccccc3Nc3ccc(C(F)(F)F)cc3)n2)CCNCC1,in the range around 3000 nM,
CS(=O)(=O)NCCCn1nnc(-c2ccccc2Nc2ccc(C(F)(F)F)cc2)n1,in the range around 3000 nM,
OCCn1nnc(-c2cccnc2Nc2ccc(C(F)(F)F)cc2)n1,in the range around 550 nM,
OCCn1nnc(-c2ccccc2Nc2cccc(F)c2)n1,in the range around 550 nM,
OCCn1nnc(-c2ccccc2Nc2ccc(F)cc2F)n1,in the range around 550 nM,
OCCn1nnc(-c2cccnc2Nc2ccc(OC(F)(F)F)cc2)n1,in the range around 550 nM,
CC(C)(C)OC(=O)N1CCCC(O)(Cn2nnc(-c3ccccc3Nc3ccc(C(F)(F)F)cc3)n2)C1 (stereo not given),in the range around 3000 nM,
OCCn1nnc(-c2ccccc2Nc2cccc(OC(F)(F)F)c2)n1,in the range around 550 nM,
CN(C)CCCn1nnc(-c2ccccc2Nc2ccc(OC(F)(F)F)cc2)n1,in the range around 3000 nM,
FC(F)(F)Oc1ccc(Nc2ccccc2-c2nnn(Cc3cccnc3)n2)cc1,in the range around 3000 nM,
O=C(Cn1nnc(-c2ccccc2Nc2ccc(C(F)(F)F)cc2)n1)N1CCCC1,in the range around 550 nM,
OC1(Cn2nnc(-c3ccccc3Nc3ccc(C(F)(F)F)cc3)n2)CCCC1,< 100 nM,
COCCn1nnc(-c2ccccc2Nc2cccc(C(F)(F)F)c2)n1,in the range around 3000 nM,
OC1(Cn2nnc(-c3ccccc3Nc3ccc(C(F)(F)F)cc3)n2)CCNC1 (stereo not given),in the range around 550 nM,
CCOC(=O)Cn1cc(-c2ccccc2Nc2cccc(C(F)(F)F)c2)cn1,in the range around 550 nM,
CCc1cccc(Nc2ccccc2-c2nnn(CCO)n2)c1,in the range around 550 nM,
FC(F)(F)c1ccc(Nc2ccccc2-c2nnn(Cc3ccncc3)n2)cc1,in the range around 550 nM,
CCOC(=O)Cn1nnc(-c2ccccc2Nc2ccc(F)cc2)n1,in the range around 550 nM,
FC(F)(F)c1ccc(Nc2ccccc2-c2nnn(C3COC3)n2)cc1,< 100 nM,
OCCn1nnc(-c2cnccc2Nc2ccc(C(F)(F)F)cc2)n1,in the range around 3000 nM,
OCCn1nnc(-c2ccccc2Nc2ccccc2F)n1,in the range around 3000 nM,
FC(F)(F)c1ccc(Nc2ccccc2-c2nnn(Cc3cccnc3)n2)cc1,in the range around 550 nM,
FC(F)(F)Oc1ccc(Nc2ccccc2-c2nnn(Cc3ccccn3)n2)cc1,in the range around 3000 nM,
OCCn1nnc(-c2ccccc2Nc2ccc(F)cc2)n1,in the range around 550 nM,
OC1(Cn2nnc(-c3ccccc3Nc3ccc(C(F)(F)F)cc3)n2)CCCOC1 (stereo not given),in the range around 550 nM,
O=C1NCC(Cn2nnc(-c3ccccc3Nc3ccc(C(F)(F)F)cc3)n2)O1 (stereo not given),in the range around 550 nM,

SMILES,"IC50 (HEK-293T, 24 h)",IC50
CCOC(=O)Cn1ncc(-c2ccccc2Nc2ccc(C(F)(F)F)cc2)c1C,< 100 nM,
OCCn1nnc(-c2ccccc2Nc2cccc(C(F)(F)F)c2)n1,in the range around 3000 nM,in the range around 3000 nM
CCOC(=O)Cn1ncc(-c2ccccc2Nc2cccc(C(F)(F)F)c2)c1C,in the range around 3000 nM,
OCCn1nnc(-c2ccccc2Nc2ccc(F)c(F)c2)n1,in the range around 550 nM,
O=C(Cn1nnc(-c2ccccc2Nc2ccc(C(F)(F)F)cc2)n1)c1ccccc1,in the range around 3000 nM,
OCCCn1nnc(-c2ccccc2Nc2cccc(C(F)(F)F)c2)n1,in the range around 550 nM,
OC1(Cn2nnc(-c3ccccc3Nc3ccc(C(F)(F)F)cc3)n2)CCOC1 (stereo not given),< 100 nM,
FC(F)(F)c1ccc(Nc2ccccc2-c2nnn(C3CCOC3)n2)cc1 (stereo not given),< 100 nM,
Cc1nn(CCO)cc1-c1ccccc1Nc1ccc(C(F)(F)F)cc1,in the range around 3000 nM,
FC(F)(F)c1ccc(Nc2ccccc2-c2nnn(C3CCCOC3)n2)cc1 (stereo not given),in the range around 550 nM,
FC(F)(F)c1ccc(Nc2ccccc2-c2nnn(C3CCOCC3)n2)cc1,in the range around 550 nM,
CCOC(=O)Cn1cc(-c2ccccc2Nc2ccc(C(F)(F)F)cc2)cn1,< 100 nM,
COc1ccc(Nc2ccccc2-c2nnn(CCO)n2)cc1,in the range around 550 nM,
O=C(O)Cn1cc(-c2ccccc2Nc2ccc(C(F)(F)F)cc2)cn1,in the range around 550 nM,
Cc1c(-c2ccccc2Nc2ccc(C(F)(F)F)cc2)cnn1CCO,in the range around 3000 nM,
OCCn1nnc(-c2ccccc2Nc2ccc(SC(F)F)cc2)n1,in the range around 550 nM,
CCc1ccc(Nc2ccccc2-c2nnn(CCO)n2)cc1,in the range around 550 nM,
CCOC(=O)Cn1cc(-c2ccccc2Nc2cccc(C(F)(F)F)c2)nn1,in the range around 3000 nM,
C[C@H](c1ccccc1)N1C(=O)OC[C@H]1Cn1nnc(-c2ccccc2Nc2ccc(C(F)(F)F)cc2)n1,in the range around 550 nM,
CCOC(=O)Cn1cc(-c2ccccc2Nc2ccc(C(F)(F)F)cc2)c(C)n1,in the range around 550 nM,
CNC(=O)Cn1nnc(-c2ccccc2Nc2ccc(OC(F)(F)F)cc2)n1,in the range around 550 nM,
OCCn1nnc(-c2ccccc2Nc2ccc(OC(F)(F)F)cc2)n1,< 100 nM,
OC1(Cn2nnc(-c3ccccc3Nc3ccc(C(F)(F)F)cc3)n2)CCCCC1,in the range around 550 nM,
FC(F)(F)c1ccc(Nc2ccccc2-c2nnn(-c3ccccn3)n2)cc1,in the range around 550 nM,
FC(F)(F)c1ccc(Nc2ccccc2-c2nnn(Cc3ccccn3)n2)cc1,in the range around 550 nM,
OC1(Cn2nnc(-c3ccccc3Nc3ccc(C(F)(F)F)cc3)n2)CCOCC1,in the range around 550 nM,

# More lines, now with the values ahead:
"IC50 (HEK-293T, 24 h)",IC50,SMILES
< 100 nM,,OC(Cn1nnc(-c2ccccc2Nc2ccc(C(F)(F)F)cc2)n1)C(F)(F)F (stereo not given)
in the range around 3000 nM,,CN(C)CCCn1nnc(-c2ccccc2Nc2ccc(C(F)(F)F)cc2)n1
< 100 nM,,NC(=O)NCCn1nnc(-c2ccccc2Nc2ccc(C(F)(F)F)cc2)n1
< 100 nM,,CC(C)(O)Cn1nnc(-c2ccccc2Nc2ccc(C(F)(F)F)cc2)n1
< 100 nM,,CC(CO)n1nnc(-c2ccccc2Nc2ccc(C(F)(F)F)cc2)n1 (stereo not given)
< 100 nM,,NC(=O)OCCn1nnc(-c2ccccc2Nc2ccc(C(F)(F)F)cc2)n1
< 100 nM,< 100 nM,OCCn1nnc(-c2ccccc2Nc2ccc(C(F)(F)F)cc2)n1
< 100 nM,,NC(=O)Cn1nnc(-c2ccccc2Nc2ccc(C(F)(F)F)cc2)n1
in the range around 550 nM,,CC(=O)NCCCn1nnc(-c2ccccc2Nc2ccc(C(F)(F)F)cc2)n1
< 100 nM,,CCOC(=O)C(C)n1nnc(-c2ccccc2Nc2ccc(C(F)(F)F)cc2)n1 (stereo not given)
in the range around 550 nM,,FCCCn1nnc(-c2ccccc2Nc2ccc(C(F)(F)F)cc2)n1
in the range around 550 nM,,FCCn1nnc(-c2ccccc2Nc2ccc(C(F)(F)F)cc2)n1
< 100 nM,,OC(Cn1nnc(-c2ccccc2Nc2ccc(C(F)(F)F)cc2)n1)C1CC1 (stereo not given)
< 100 nM,,CC(O)Cn1nnc(-c2ccccc2Nc2ccc(C(F)(F)F)cc2)n1 (stereo not given)
in the range around 3000 nM,,OC(Cn1nnc(-c2ccccc2Nc2ccc(C(F)(F)F)cc2)n1)c1ccccc1 (stereo not given)
< 100 nM,,CCC(O)Cn1nnc(-c2ccccc2Nc2ccc(C(F)(F)F)cc2)n1 (stereo not given)

"IC50 (HEK-293T, 24 h)",IC50,SMILES
< 100 nM,,OCC(O)Cn1nnc(-c2ccccc2Nc2ccc(C(F)(F)F)cc2)n1 (stereo not given)
in the range around 3000 nM,,CCN(CC)C(=O)Cn1nnc(-c2ccccc2Nc2ccc(C(F)(F)F)cc2)n1
in the range around 3000 nM,,NS(=O)(=O)NCCn1nnc(-c2ccccc2Nc2ccc(C(F)(F)F)cc2)n1
< 100 nM,,CNC(=O)Cn1nnc(-c2ccccc2Nc2ccc(C(F)(F)F)cc2)n1
in the range around 550 nM,,CC(=O)NCCn1nnc(-c2ccccc2Nc2ccc(C(F)(F)F)cc2)n1
in the range around 3000 nM,,CS(=O)(=O)NCCn1nnc(-c2ccccc2Nc2ccc(C(F)(F)F)cc2)n1
in the range around 550 nM,,CC(C)C(O)Cn1nnc(-c2ccccc2Nc2ccc(C(F)(F)F)cc2)n1 (stereo not given)
< 100 nM,,COCC(C)n1nnc(-c2ccccc2Nc2ccc(C(F)(F)F)cc2)n1 (stereo not given)
< 100 nM,,OCCCn1nnc(-c2ccccc2Nc2ccc(C(F)(F)F)cc2)n1
in the range around 550 nM,,CN(C)C(=O)Cn1nnc(-c2ccccc2Nc2ccc(C(F)(F)F)cc2)n1
in the range around 550 nM,,NS(=O)(=O)Cn1nnc(-c2ccccc2Nc2ccc(C(F)(F)F)cc2)n1
in the range around 550 nM,,O=C(Cn1nnc(-c2ccccc2Nc2ccc(C(F)(F)F)cc2)n1)NO
in the range around 550 nM,,O=C(Cn1nnc(-c2ccccc2Nc2ccc(C(F)(F)F)cc2)n1)C1CC1
in the range around 550 nM,,CN(C)CCn1nnc(-c2ccccc2Nc2ccc(C(F)(F)F)cc2)n1
in the range around 550 nM,,CC(C)C(=O)Cn1nnc(-c2ccccc2Nc2ccc(C(F)(F)F)cc2)n1
